# Measurements from patent US5641861A, “μopioid receptor ligands: agonists and antagonists” (Torrey Pines Institute For Molecular Studies, priority 1995, dated 1997).
# Where no end group is shown, it is not given here. [ ]: non-standard residue; d: D form.
# What was measured:
# μ receptor = molecular target: T1, μ receptor (Homo sapiens, UniProt P35372); assay: Adenylyl cyclase assay, SH-SY5Y neuroblastoma cell membranes; assay type: biochemical; settings: AGONISTS section; cyclic AMP level, agonist alone at 100 μM
# T1 construct: An adenylyl cyclase assay using human SH-SY5Y neuroblastoma cell line membranes; endogenous in cells; host or cells: human SH-SY5Y neuroblastoma cells, retinoic-acid differentiated; membranes
# T1 sequence (P35372 whole entry): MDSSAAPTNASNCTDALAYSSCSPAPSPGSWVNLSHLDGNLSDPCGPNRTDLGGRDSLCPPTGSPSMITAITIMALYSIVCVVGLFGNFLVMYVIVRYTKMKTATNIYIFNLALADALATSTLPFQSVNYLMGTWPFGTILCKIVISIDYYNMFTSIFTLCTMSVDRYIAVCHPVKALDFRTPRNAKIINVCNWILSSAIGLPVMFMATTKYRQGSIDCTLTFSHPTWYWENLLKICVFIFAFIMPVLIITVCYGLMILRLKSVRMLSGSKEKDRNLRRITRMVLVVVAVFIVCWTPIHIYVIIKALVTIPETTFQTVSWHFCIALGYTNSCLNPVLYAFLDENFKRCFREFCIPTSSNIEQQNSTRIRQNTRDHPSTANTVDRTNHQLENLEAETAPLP
# Description: An adenylyl cyclase assay using human SH-SY5Y neuroblastoma cell line membranes was used to rapidly determine the opioid agonists or antagonist properties of individual peptides. Opioid agonist inhibit adenylyl cyclase activity, resulting in reduced levels of cyclic AMP.
# Cell membranes were prepared for use in the adenylyl cyclase assays as previously described (Law et al., Mol. Pharmacol., 23:26-35 (1983), which is herein incorporated by reference). After the initial centrifugation at 200×g for 15 min at 4° C., the cells were resuspended in sucrose buffer (0.32M sucrose, 40 mM HEPES, 2 mMEGTA, pH 7.6). Cells were centrifuged again at 200×g, then homogenized in sucrose buffer with five strokes of a Dounce Homogenizer (Wheaton Instruments, Millville, N.J.). […]
# SH-SY5Y membranes were incubated in a final volume of 100 μl of 40 mM HEPES, pH 7.7, containing 15 units of creatine phosphokinase, 20 mM phosphocreatine, 1 mM 1,10-o-phenanthroline, 60 μM isobutylmethylxanthine (IBMX), 50 μM ATP, 50 μM GTP, 3 mM MgCl2 and 100 mM NaCl. […] The amount of cyclic AMP present in 100 μl of the supernatant, equivalent to the cyclic AMP produced by 15 μg of membrane protein, was determined using a cyclic AMP kit (Diagnostic Products, Los Angeles, Calif.). […] The final supernatants were counted in 10 ml of Ecolite (+) scintillation fluid (ICN Pharmaceuticals, Covina, Calif.).
# MU RECEPTOR = assay: Agonist or antagonist activity by adenylyl cyclase assay or GPI assay (not specified which); settings: Table 13
# κ receptors = molecular target: T2, κ receptors (Cavia porcellus, UniProt P41144); assay: Radioreceptor assay selective for κ receptors ([3H]-U69,593); assay type: binding, guinea pig; settings: ratio of IC50 values
# T2 construct: tissue homogenates prepared from guinea pig brains (cortex and cerebellum); tissue Harlan Bioproducts for Science; host or cells: guinea pig brain (cortex and cerebellum) homogenate
# T2 sequence (P41144 whole entry): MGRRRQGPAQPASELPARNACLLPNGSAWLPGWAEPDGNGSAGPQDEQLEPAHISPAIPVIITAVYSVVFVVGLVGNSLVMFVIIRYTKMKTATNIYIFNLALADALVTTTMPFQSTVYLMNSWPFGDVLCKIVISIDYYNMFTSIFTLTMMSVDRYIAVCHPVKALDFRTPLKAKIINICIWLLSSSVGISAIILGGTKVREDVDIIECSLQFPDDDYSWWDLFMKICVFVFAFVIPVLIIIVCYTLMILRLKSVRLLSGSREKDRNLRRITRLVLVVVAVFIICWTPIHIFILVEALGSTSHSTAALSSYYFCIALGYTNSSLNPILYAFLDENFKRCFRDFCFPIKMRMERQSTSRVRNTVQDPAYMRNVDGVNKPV
# Description: Assays selective for κ receptors were carried out using [^3 H]-U69,593 (3 nM, specific activity 62 Ci/mmol) as the radioligand and tissue homogenates prepared from guinea pig brains (cortex and cerebellum) using Tris buffer containing 100 μM PMSF, 5 mMMgCl2 and 1 mg/ml BSA, pH 7.4. Sample tubes were incubated for 2.5 hr.
# δ receptors = molecular target: T3, δ receptors (Rattus norvegicus, UniProt P33533); assay: Radioreceptor assay selective for δ receptors ([3H]-naltrindole); assay type: binding; settings: ratio of IC50 values
# T3 construct: Radioreceptor assays selective for δ receptors were performed using rat brain homogenates; tissue Harlan Bioproducts for Science; host or cells: rat brain crude membrane homogenate
# T3 sequence (P33533 whole entry): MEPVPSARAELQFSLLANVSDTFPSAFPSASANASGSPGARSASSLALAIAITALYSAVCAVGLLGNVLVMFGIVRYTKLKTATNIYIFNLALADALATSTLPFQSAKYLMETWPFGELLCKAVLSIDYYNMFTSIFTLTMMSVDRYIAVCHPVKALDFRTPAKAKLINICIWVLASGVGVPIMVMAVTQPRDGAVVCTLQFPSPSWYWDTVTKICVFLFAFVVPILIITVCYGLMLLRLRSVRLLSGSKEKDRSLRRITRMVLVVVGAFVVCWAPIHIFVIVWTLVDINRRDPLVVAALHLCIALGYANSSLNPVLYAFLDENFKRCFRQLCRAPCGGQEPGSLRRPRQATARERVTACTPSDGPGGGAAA
# Description: Radioreceptor assays selective for δ receptors were performed using rat brain homogenates as above and [^3 H]-naltrindole (0.5 nM, specific activity 34.7 Ci/mmol) as radioligand in Tris buffer containing 100 μM phenylmethylsulfonyl fluoride (PMSF), 5 mMMgCl2 and 1 mg/ml bovine serum albumin (BSA), pH 7.4. Samples were incubated for 2.5 hr. Standard curves were prepared using 0.10-3200 nM [^3 H]-D-Pen2, Pen5 ]-enkephalin ([^3 H]-DPDPE).
# guinea-pig ileum = settings: inhibition of electrically stimulated contraction; read-out: GPI IC50
# Description: The GPI assay (Kosterlitz et al., Br. J. Pharam. 39:398-418 (1970), which is incorporated herein by reference), is one of the most widely used assays for the determination of opioid activities in vitro. The assay is based on the ability of opioid agonists to inhibit electrically stimulated contraction in tissue. GPI is not a "clean" assay insofar as the ileum preparation contains both μ and κ receptors. However, μ receptor mediated-effects in the GPI can be distinguished from κ receptor mediated effects by determining Ke values for naloxone as the antagonist (μ effects: Ke ~1-3 nM); κ effects: Ke ~20-30 nM) or by using specific μ or κ antagonists.
# The guinea pigs were killed by decapitation. […] Isometric contractions were measured via strain gauge force transducers and recorded on stripchart recorders.
# In all bioassays, a dose-response curve with a reference compound (e.g., [D-Ala^2, Leu^5 ]enkephelinamide or U50,488) is used in each preparation. […] Ke values for naloxone or other antagonists are determined from the ratio of IC50 values (DR) obtained with the peptide under investigation in the presence and absence of a fixed concentration of the antagonist, using the formula Ke =a/(DR-1) ("a"=fixed concentration). A log dose-response curve is obtained with [Leu^5 ]enkephalin for each ileum and vas deferens preparation and the IC50 value is determined. […]
# mouse vas deferens = assay: Mouse vas deferens (MVD) bioassay; settings: inhibition of electrically stimulated contraction
# Text: The mouse vas deferens (MVD) bioassay was also used to determine whether a peptide is an opioid agonist or an opiod antagonist. Again, such information is not available from the radioreceptor binding assay results.
# The MVD assay (Henderson et al., Br. J. Pharma. 12:119-127 (1957), which is incorporated herein by reference) is another one of the most widely used assays for the determination of opioid activities in vitro. This assay, like the GPI assay, is based on the ability of opioid agonists to inhibit electrically stimulated contractions in tissue. The MVD assay is also not "clean" in that, in addition to the predominant δ receptor, the μ and κ receptors are also present. […]
# Mouse vasa deferentia were dissected and placed in Krebs solution. The responses of the longitudinal muscle were recorded under a basal tension of 0.5 g and excited by pulses of 1 millisecond duration.
# In all bioassays, a dose-response curve with a reference compound (e.g., [D-Ala^2, Leu^5 ]enkephelinamide or U50,488) is used in each preparation. […] Potencies of new compounds to be tested are determined relative to that of the reference compound, and their IC50 values are normalized based on an average IC50 value which has been obtained for the reference compound by performance of many determinations with a large number of preparations. […]
compound,measurement,setting,value
"C[C@@H](NC(=O)[C@@H](N)Cc1ccc(O)cc1)C(=O)NCC(=O)N(C)[C@@H](Cc1ccccc1)C(=O)NCCO [DAMGO, [D-Ala^2, MePhe^4, Gly-ol^5]enkephalin]",% Basal Control,μ receptor,34 ± 6%
(D)Ile--(D)Met--(D)Thr--(D)Trp--Gly--(D)Pro--NH2 ([dI][dM][dT][dW]G[dP]-NH2; N-terminus assumed; SMILES CC[C@@H](C)[C@@H](N)C(=O)N[C@H](CCSC)C(=O)N[C@@H](C(=O)N[C@H](Cc1c[nH]c2ccccc12)C(=O)NCC(=O)N1CCC[C@@H]1C(N)=O)[C@H](C)O) [SEQ ID NO. 130],AGONIST OR ANTAGONIST,MU RECEPTOR,Agonist
Trp--Trp--Pro--Arg--NH2 [SEQ ID NO. 69],κ/μ,κ receptors,"2,060"
same,δ/μ,δ receptors,"1,740"
WWPKHK-NH2 [SEQ ID NO. 50],IC50,guinea-pig ileum,270 ± 19 nM
same,IC50,mouse vas deferens,45 ± 7 nM
